Target: human PDE1B enzyme (Homo sapiens (Human), UniProt Q01064)
Test: IMAP TR-FRET PDE1B enzymatic assay
Format: biochemical
Details: negative log of half-maximal molar inhibitory concentration, 200 nM FAM-cAMP, values given as bins; for IC50: read-out: PDE1b (pIC50) (converted)
In short: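 Full-length GST-tagged human PDE1B (250 pg/well) in IMAP BSA buffer with 10 U/ml calmodulin and 2.5 mM CaCl2; compound pre-incubated 5 min at room temperature, then 200 nM (final) FAM-cAMP for 30 min. IMAP binding reagent/Tb added, 1 h; TR-FRET 520/490 ratio read. IC50 from sigmoidal dose-response fit.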

Compound	IC50	PDE1b (pIC50)
CCCNC(=O)c1c(C)oc2ncnc(NC3(C)CC3)c12 [Example 211, 6-Methyl-4-[(1-methylcyclopropyl)amino]-N-propylfuro[2,3-d]pyrimidine-5-carboxamide]	10 to 100 nM	
Cc1oc2ncnc(NC3(C)CC3)c2c1C(=O)NC1CCC1 [Example 212, N-Cyclobutyl-6-methyl-4-[(1-methylcyclopropyl)amino]furo[2,3-d]pyrimidine-5-carboxamide]	10 to 100 nM	
CCCCNC(=O)c1c(C)oc2ncnc(NC3(C)CC3)c12 [Example 213, N-Butyl-6-methyl-4-[(1-methylcyclopropyl)amino]furo[2,3-d]pyrimidine-5-carboxamide]	10 to 100 nM	
Cc1oc2ncnc(NC3(C)CC3)c2c1C(=O)N(C)Cc1ccccn1 [Example 214, N,6-Dimethyl-4-[(1-methylcyclopropyl)amino]-N-(pyridin-2-ylmethyl)furo[2,3-d]pyrimidine-5-carboxamide]	100 to 1000 nM	
Cc1oc2ncnc(NC3(C)CC3)c2c1C(=O)N(C)Cc1cccnc1 [Example 215, N,6-Dimethyl-4-[(1-methylcyclopropyl)amino]-N-(pyridin-3-ylmethyl)furo[2,3-d]pyrimidine-5-carboxamide]	100 to 1000 nM	
Cc1oc2ncnc(NC3(C)CC3)c2c1C(=O)NCc1cccc(F)c1 [Example 217, N-[(3-Fluorophenyl)methyl]-6-methyl-4-[(1-methylcyclopropyl)amino]furo[2,3-d]pyrimidine-5-carboxamide]		>8
Cc1oc2ncnc(NC3(C)CC3)c2c1C(=O)NCc1ccccc1F [Example 218, N-[(2-Fluorophenyl)methyl]-6-methyl-4-[(1-methylcyclopropyl)amino]furo[2,3-d]pyrimidine-5-carboxamide]	10 to 100 nM	
Cc1oc2ncnc(NC3(C)CC3)c2c1C(=O)NCCCn1ccnc1 [Example 220, N-[3-(1H-Imidazol-1-yl)propyl]-6-methyl-4-[(1-methylcyclopropyl)amino]furo[2,3-d]pyrimidine-5-carboxamide]	10 to 100 nM	
Cc1oc2ncnc(NC3(C)CC3)c2c1C(=O)NCCc1cccs1 [Example 222, 6-Methyl-4-[(1-methylcyclopropyl)amino]-N-[2-(thiophen-2-yl)ethyl]furo[2,3-d]pyrimidine-5-carboxamide]	10 to 100 nM	
Cc1oc2ncnc(NC3(C)CC3)c2c1C(=O)N(C)Cc1ccsc1 [Example 223, N,6-Dimethyl-4-[(1-methylcyclopropyl)amino]-N-(thiophen-3-ylmethyl)furo[2,3-d]pyrimidine-5-carboxamide]	10 to 100 nM	
Cc1oc2ncnc(NC3(C)CC3)c2c1C(=O)N(C)Cc1cccs1 [Example 224, N,6-Dimethyl-4-[(1-methylcyclopropyl)amino]-N-(thiophen-2-ylmethyl)furo[2,3-d]pyrimidine-5-carboxamide]	10 to 100 nM	
Cc1oc2ncnc(NC3(C)CC3)c2c1C(=O)NCCC1CCCCC1 [Example 225, N-(2-Cyclohexylethyl)-6-methyl-4-[(1-methylcyclopropyl)amino]furo[2,3-d]pyrimidine-5-carboxamide]	10 to 100 nM	
Cc1oc2ncnc(NC3(C)CC3)c2c1C(=O)NC1CCc2ccccc21 (stereo not drawn) [Example 230, N-(2,3-Dihydro-1H-inden-1-yl)-6-methyl-4-[(1-methylcyclopropyl)amino]furo[2,3-d]pyrimidine-5-carboxamide]	10 to 100 nM	
Cc1oc2ncnc(NC3(C)CC3)c2c1C(=O)N1CCc2ccccc2C1 [Example 233, 6-Methyl-N-(1-methylcyclopropyl)-5-(1,2,3,4-tetrahydroisoquinoline-2-carbonyl)furo[2,3-d]pyrimidin-4-amine]	10 to 100 nM	
Cc1ccc(CCNC(=O)c2c(C)oc3ncnc(NC4(C)CC4)c23)cc1 [Example 235, 6-Methyl-4-[(1-methylcyclopropyl)amino]-N-[2-(4-methylphenyl)ethyl]furo[2,3-d]pyrimidine-5-carboxamide]	10 to 100 nM	
Cc1ccccc1CCNC(=O)c1c(C)oc2ncnc(NC3(C)CC3)c12 [Example 236, 6-Methyl-4-[(1-methylcyclopropyl)amino]-N-[2-(2-methylphenyl)ethyl]furo[2,3-d]pyrimidine-5-carboxamide]	10 to 100 nM	
Cc1ccc(CNC(=O)c2c(C)oc3ncnc(NC4(C)CC4)c23)cc1C [Example 237, N-[(3,4-Dimethylphenyl)methyl]-6-methyl-4-[(1-methylcyclopropyl)amino]furo[2,3-d]pyrimidine-5-carboxamide]		>8
Cc1cccc(CNC(=O)c2c(C)oc3ncnc(NC4(C)CC4)c23)c1C [Example 238, N-[(2,3-Dimethylphenyl)methyl]-6-methyl-4-[(1-methylcyclopropyl)amino]furo[2,3-d]pyrimidine-5-carboxamide]		>8

Compound	IC50	PDE1b (pIC50)
Cc1oc2ncnc(NC3(C)CC3)c2c1C(=O)NC(C)(C)c1ccccc1 [Example 239, 6-Methyl-4-[(1-methylcyclopropyl)amino]-N-(2-phenylpropan-2-yl)furo[2,3-d]pyrimidine-5-carboxamide]	10 to 100 nM	
COc1ccc(NC(=O)c2c(C)oc3ncnc(NC4(C)CC4)c23)c(C)c1 [Example 244, N-(4-Methoxy-2-methylphenyl)-6-methyl-4-[(1-methylcyclopropyl)amino]furo[2,3-d]pyrimidine-5-carboxamide]	10 to 100 nM	
COc1cccc(CNC(=O)c2c(C)oc3ncnc(NC4(C)CC4)c23)c1 [Example 246, N-[(3-Methoxyphenyl)methyl]-6-methyl-4-[(1-methylcyclopropyl)amino]furo[2,3-d]pyrimidine-5-carboxamide]	10 to 100 nM	
Cc1oc2ncnc(NC3(C)CC3)c2c1C(=O)N(C)Cc1ccc(F)cc1 [Example 248, N-[(4-Fluorophenyl)methyl]-N,6-dimethyl-4-[(1-methylcyclopropyl)amino]furo[2,3-d]pyrimidine-5-carboxamide]	10 to 100 nM	
Cc1oc2ncnc(NC3(C)CC3)c2c1C(=O)N(C)Cc1ccccc1F [Example 249, N-[(2-Fluorophenyl)methyl]-N,6-dimethyl-4-[(1-methylcyclopropyl)amino]furo[2,3-d]pyrimidine-5-carboxamide]	10 to 100 nM	
Cc1oc2ncnc(NC3(C)CC3)c2c1C(=O)N(C)Cc1cccc(F)c1 [Example 250, N-[(3-Fluorophenyl)methyl]-N,6-dimethyl-4-[(1-methylcyclopropyl)amino]furo[2,3-d]pyrimidine-5-carboxamide]	10 to 100 nM	
CCc1cc(CN(C)C(=O)c2c(C)oc3ncnc(NC4(C)CC4)c23)on1 [Example 251, N-[(3-Ethyl-1,2-oxazol-5-yl)methyl]-N,6-dimethyl-4-[(1-methylcyclopropyl)amino]furo[2,3-d]pyrimidine-5-carboxamide]	10 to 100 nM	
COc1cc(NC(=O)c2c(C)oc3ncnc(NC4(C)CC4)c23)ccc1F [Example 253, N-(4-Fluoro-3-methoxyphenyl)-6-methyl-4-[(1-methylcyclopropyl)amino]furo[2,3-d]pyrimidine-5-carboxamide]	10 to 100 nM	
Cc1oc2ncnc(NC3(C)CC3)c2c1C(=O)NCc1ccccc1Cl [Example 254, N-[(2-Chlorophenyl)methyl]-6-methyl-4-[(1-methylcyclopropyl)amino]furo[2,3-d]pyrimidine-5-carboxamide]	10 to 100 nM	
Cc1ccc(Cl)c(NC(=O)c2c(C)oc3ncnc(NC4(C)CC4)c23)c1 [Example 256, N-(2-Chloro-5-methylphenyl)-6-methyl-4-[(1-methylcyclopropyl)amino]furo[2,3-d]pyrimidine-5-carboxamide]	10 to 100 nM	
COCCN1CCN(C(=O)c2c(C)oc3ncnc(NC4(C)CC4)c23)CC1 [Example 260, 5-[4-(2-Methoxyethyl)piperazine-1-carbonyl]-6-methyl-N-(1-methylcyclopropyl)furo[2,3-d]pyrimidin-4-amine]	100 to 1000 nM	
Cc1oc2ncnc(NC3(C)CC3)c2c1C(=O)Nc1ccc2c(cnn2C)c1 [Example 262, 6-Methyl-N-(1-methyl-1H-indazol-5-yl)-4-[(1-methylcyclopropyl)amino]furo[2,3-d]pyrimidine-5-carboxamide]	10 to 100 nM	
Cc1oc2ncnc(NC3(C)CC3)c2c1C(=O)Nc1ccc2scnc2c1 [Example 263, N-(1,3-Benzothiazol-5-yl)-6-methyl-4-[(1-methylcyclopropyl)amino]furo[2,3-d]pyrimidine-5-carboxamide]	10 to 100 nM	
Cc1oc2ncnc(NC3(C)CC3)c2c1C(=O)N(C)Cc1cc(C2CC2)[nH]n1 [Example 265, N-[(5-Cyclopropyl-1H-pyrazol-3-yl)methyl]-N,6-dimethyl-4-[(1-methylcyclopropyl)amino]furo[2,3-d]pyrimidine-5-carboxamide]	10 to 100 nM	
Cc1oc2ncnc(NC3(C)CC3)c2c1C(=O)NCc1ccc(OC(F)F)cc1 [Example 267, N-{[4-(Difluoromethoxy)phenyl]methyl}-6-methyl-4-[(1-methylcyclopropyl)amino]furo[2,3-d]pyrimidine-5-carboxamide]		>8
Cc1oc2ncnc(NC3(C)CC3)c2c1C(=O)N1CCn2ccnc2C1 [Example 269, 5-{5H,6H,7H,8H-Imidazo[1,2-a]pyrazine-7-carbonyl}-6-methyl-N-(1-methylcyclopropyl)furo[2,3-d]pyrimidin-4-amine]	10 to 100 nM	
Cc1oc2ncnc(NC3(C)CC3)c2c1C(=O)NC12CC3CC(CC(C3)C1)C2 [Example 270, N-(Adamantan-1-yl)-6-methyl-4-[(1-methylcyclopropyl)amino]furo[2,3-d]pyrimidine-5-carboxamide]	< 10 nM	
Cc1oc2ncnc(NC3(C)CC3)c2c1C(=O)N1CCc2sccc2C1 [Example 273, 6-Methyl-N-(1-methylcyclopropyl)-5-{4H,5H,6H,7H-thieno[3,2-c]pyridine-5-carbonyl}furo[2,3-d]pyrimidin-4-amine]	10 to 100 nM	

Source: patent publication US20250145633A1, “SUBSTITUTED FURANOPYRIMIDINE COMPOUNDS AS PDE1 INHIBITORS” (Dart NeuroScience, LLC, priority 2017, published 2025)
